From patent US10450306B2, “Isoxazole analogs as FXR agonists and methods of use thereof” (Enanta Pharmaceuticals, Inc., priority 2016, dated 2019)
pEC50: −log10 of the molar value.

Target: T1, human FXR (NR1H4) (Homo sapiens, UniProt Q96RI1)
T1 construct: host or cells: CHO (Chinese hamster ovary) reporter cells
T1 sequence (Q96RI1 1-486): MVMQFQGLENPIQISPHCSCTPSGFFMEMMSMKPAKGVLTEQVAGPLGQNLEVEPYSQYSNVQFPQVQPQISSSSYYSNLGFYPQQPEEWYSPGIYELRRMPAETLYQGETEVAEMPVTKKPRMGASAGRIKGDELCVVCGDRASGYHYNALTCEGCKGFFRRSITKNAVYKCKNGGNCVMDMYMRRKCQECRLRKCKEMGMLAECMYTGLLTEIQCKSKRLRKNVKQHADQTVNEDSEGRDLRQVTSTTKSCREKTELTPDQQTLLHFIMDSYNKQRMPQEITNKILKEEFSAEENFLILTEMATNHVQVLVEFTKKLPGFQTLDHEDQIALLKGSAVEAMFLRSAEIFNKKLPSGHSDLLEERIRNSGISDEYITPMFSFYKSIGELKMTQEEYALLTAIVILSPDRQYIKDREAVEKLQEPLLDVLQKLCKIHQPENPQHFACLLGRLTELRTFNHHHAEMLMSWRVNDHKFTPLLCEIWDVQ
Experiment: Human FXR (NR1H4) Assay: Gal4 promoter driven luciferase reporter transactivation in CHO cells (Indigo Bioscience kit IB00601); as to Efficacy (%): efficacy normalized to CDCA set as 100%
Format: cell-based
Conditions: for Emax: CHO, read-out: Efficacy (%); for pEC50: Human FXR (NR1H4) reporter assay, potency ranges
Description: Human FXR (NR1H4) Assay Determination of a ligand mediated Gal4 promoter driven transactivation to quantify ligand binding mediated activation of FXR. FXR Reporter Assay kit purchased from Indigo Bioscience (Catalogue number: IB00601) to determine the potency and efficacy of compound developed by Enanta that can induce FXR activation. The principle application of this reporter assay system is to quantify functional activity of human FXR. The assay utilizes non-human mammalian cells, CHO (Chinese hamster ovary) cells engineered to express human NR1H4 protein (referred to as FXR). Reporter cells also incorporate the cDNA encoding beetle luciferase which catalyzes the substrates and yields photon emission. Luminescence intensity of the reaction is quantified using a plate-reading luminometer, Envision. Reporter Cells include the luciferase reporter gene functionally linked to an FXR responsive promoter. Thus, quantifying changes in luciferase expression in the treated reporter cells provides a sensitive surrogate measure of the changes in FXR activity. […] The assay is according to the manufacturer's instructions. In brief, the assay was performed in white, 96 well plates using final volume of 100 ul containing cells with different doses of compounds. Retrieve Reporter Cells from −80° C. storage. Perform a rapid thaw of the frozen cells by transferring a 10 ml volume of 37° C. cell recovery medium into the tube of frozen cells. Recap the tube of Reporter Cells and immediately place it in a 37° C. water bath for 5-10 minutes. Retrieve the tube of Reporter Cell Suspension from the water bath. Sanitize the outside surface of the tube with a 70% alcohol swab, and then transfer it into the cell culture hood. Dispense 90 μl of cell suspension into each well of the 96-well Assay Plate. Transfer the plate into 37° C. incubator, allowing the cells adherent to the bottom of the well. Dilute compounds in Dilution Plate (DP), and administrate to cells at Assay Plate (AP). DMSO content of the samples was kept at 0.2%. Cells were incubated for additional 22 hours before luciferase activities were measured. Thirty minutes before intending to quantify FXR activity, remove Detection Substrate and Detection Buffer from the refrigerator and place them in a low-light area so that they may equilibrate to room temperature. Remove the plate's lid and discard all media contents by ejecting it into an appropriate waste container. Gently tap the inverted plate onto a clean absorbent paper towel to remove residual droplets. Cells will remain tightly adhered to well bottoms. Add 100 ul of luciferase detection reagent to each well of the assay plate. Allow the assay plate to rest at room temperature for at least 5 minutes following the addition of LDR. Set the instrument (Envision) to perform a single 5 second “plate shake” prior to reading the first assay well. Read time may be 0.5 second (500 mSec) per well.

Row | SMILES | Emax | pEC50
1 | CC(C)S(=O)(=O)NC(=O)c1ccc2nc(N3C4CCC3CC(NCc3c(-c5c(Cl)cccc5Cl)noc3C3CC3)C4)sc2c1 (stereo not shown) [Example 237] | 226% | 7.00 to 9.00
2 | CC(C)(C)CS(=O)(=O)NC(=O)c1ccc2nc(N3C4CCC3CC(NCc3c(-c5c(Cl)cccc5Cl)noc3C3CC3)C4)sc2c1 (stereo not shown) [Example 239] | 201% | 7.00 to 9.00
3 | CC(C)(C)S(=O)(=O)NC(=O)c1ccc2nc(N3C4CCC3CC(NCc3c(-c5c(Cl)cccc5Cl)noc3C3CC3)C4)sc2c1 (stereo not shown) [Example 240] | 245% | > 9.00
4 | O=C(NS(=O)(=O)c1ccccc1)c1ccc2nc(N3C4CCC3CC(NCc3c(-c5c(Cl)cccc5Cl)noc3C3CC3)C4)sc2c1 (stereo not shown) [Example 257] | 203% | 7.00 to 9.00
5 | O=C(NS(=O)(=O)c1nccs1)c1ccc2nc(N3C4CCC3CC(NCc3c(-c5c(Cl)cccc5Cl)noc3C3CC3)C4)sc2c1 (stereo not shown) [Example 268] | 129% | 6.00 to 7.00
6 | CN(c1nc2ccc(C(=O)NS(=O)(=O)N(C)C)cc2s1)C1CCC(OCc2c(-c3c(Cl)cccc3Cl)noc2C2CC2)CC1 (stereo not shown) [Example 279] | 158% | 6.00 to 7.00
7 | CN(C)S(=O)(=O)NC(=O)c1ccc2nc(N3C4CCC3CN(Cc3c(-c5c(Cl)cccc5Cl)noc3C3CC3)C4)sc2c1 [Example 280] | 242% | 7.00 to 9.00
8 | CN(C)S(=O)(=O)NC(=O)c1ccc2nc(N3CCN(Cc4c(-c5c(Cl)cccc5Cl)noc4C4CC4)CC3)sc2c1 [Example 281] | 171% | 7.00 to 9.00
9 | CN(C)S(=O)(=O)NC(=O)c1ccc2nc(N3CCC(NCc4c(-c5c(Cl)cccc5Cl)noc4C4CC4)CC3)sc2c1 [Example 282] | 142% | 7.00 to 9.00
10 | CN(C)S(=O)(=O)NC(=O)c1ccc2nc(N3C4CCC3CC(NCc3c(-c5c(Cl)cccc5Cl)noc3C3CC3)C4)sc2c1 (stereo not shown) [Example 283] | 246% | < 6.00
11 | CC(C)(C)c1ccc(S(=O)(=O)NC(=O)c2ccc3nc(N4C5CCC4CC(NCc4c(-c6c(Cl)cccc6Cl)noc4C4CC4)C5)sc3c2)cc1 (stereo not shown) [Example 284] | 54% | < 6.00
12 | CC(C)(C)c1ccc(S(=O)(=O)NC(=O)c2cccc(N3CCN(Cc4c(-c5c(Cl)cccc5Cl)noc4C4CC4)CC3)c2)cc1 [Example 285] | 126% | 6.00 to 7.00
13 | O=C(NS(=O)(=O)C1CC1)c1ccc2nc(N3CCC(NCc4c(-c5c(Cl)cccc5Cl)noc4C4CC4)CC3)sc2c1 [Example 291] | 171% | 7.00 to 9.00
14 | CN(Cc1c(-c2c(Cl)cccc2Cl)noc1C1CC1)[C@H]1C[C@H]2CC[C@@H](C1)N2c1nc2ccc(C(=O)NS(=O)(=O)C3CC3)cc2s1 [Example 292] | 212% | 7.00 to 9.00
15 | CN(Cc1c(-c2c(Cl)cccc2Cl)noc1C1CC1)[C@H]1C[C@H]2CC[C@@H](C1)N2c1nc2ccc(C(=O)NS(=O)(=O)C3(C)CC3)cc2s1 [Example 293] | 92% | 7.00 to 9.00
16 | CC1(S(=O)(=O)NC(=O)c2ccc3nc(N4C5CCC4CC(N(C=O)Cc4c(-c6c(Cl)cccc6Cl)noc4C4CC4)C5)sc3c2)CC1 (stereo not shown) [Example 294] | 130% | < 6.00
17 | CC1(S(=O)(=O)NC(=O)c2cc(F)c3nc(N4C5CCC4CC(NCc4c(-c6c(Cl)cccc6Cl)noc4C4CC4)C5)sc3c2)CC1 (stereo not shown) [Example 295] | 152% | 7.00 to 9.00
18 | [2H]C([2H])([2H])C1(S(=O)(=O)NC(=O)c2cc(F)c3nc(N4C5CCC4CC(NCc4c(-c6c(Cl)cccc6Cl)noc4C4CC4)C5)sc3c2)CC1 (stereo not shown) [Example 296] | 184% | > 9.00

Row | SMILES | Emax | pEC50
19 | CN(C)S(=O)(=O)NC(=O)c1cc(F)c2nc(N3C4CCC3CC(NCc3c(-c5c(Cl)cccc5Cl)noc3C3CC3)C4)sc2c1 (stereo not shown) [Example 297] | 150% | > 9.00
20 | O=C(NS(=O)(=O)C1CC1)c1cc(F)c2nc(N3C4CCC3CC(NCc3c(-c5c(Cl)cccc5Cl)noc3C3CC3)C4)sc2c1 (stereo not shown) [Example 298] | 155% | 7.00 to 9.00
21 | O=CC1(S(=O)(=O)NC(=O)c2cc(F)c3nc(N4C5CCC4CC(NCc4c(-c6c(Cl)cccc6Cl)noc4C4CC4)C5)sc3c2)CC1 (stereo not shown) [Example 299] | 154% | 7.00 to 9.00
22 | O=C(NS(=O)(=O)N1CCCCC1)c1cc(F)c2nc(N3C4CCC3CC(NCc3c(-c5c(Cl)cccc5Cl)noc3C3CC3)C4)sc2c1 (stereo not shown) [Example 300] | 143% | > 9.00
23 | CN(C)S(=O)(=O)NC(=O)c1ccc2nc(N3C4CCC3CC(NCc3c(-c5c(Cl)cccc5Cl)noc3C3CC3)C4)oc2c1 (stereo not shown) [Example 301] | 63% | > 9.00
24 | CC1(S(=O)(=O)NC(=O)c2ccc3nc(N4C5CCC4CC(NCc4c(-c6c(Cl)cccc6Cl)noc4C4CC4)C5)oc3c2)CC1 (stereo not shown) [Example 302] | 62% | 7.00 to 9.00
25 | COc1cc(C(=O)NS(=O)(=O)C2(C)CC2)cc2sc(N3C4CCC3CC(NCc3c(-c5c(Cl)cccc5Cl)noc3C3CC3)C4)nc12 (stereo not shown) [Example 304] | 139% | > 9.00
26 | CC1(S(=O)(=O)NC(=O)c2ccc3nc(N4CCC(NCc5c(-c6c(Cl)cccc6Cl)noc5C5CC5)CC4)sc3c2)CC1 [Example 305] | 139% | 6.00 to 7.00
27 | CC1(S(=O)(=O)NC(=O)c2cc(OC(F)F)c3nc(N4C5CCC4CC(NCc4c(-c6c(Cl)cccc6Cl)noc4C4CC4)C5)sc3c2)CC1 [Example 323, 2-((1R,3r,5S)-3-(((5-cyclopropyl-3-(2,6-dichlorophenyl)isoxazol-4-yl)methyl)amino)-8-azabicyclo[3.2.1]octan-8-yl)-4-(difluoromethoxy)-N-((1-methylcyclopropyl)sulfonyl)benzo[d]thiazole-6-carboxamide] | 150% | > 9.00
28 | O=C(NS(=O)(=O)N1CCCCC1)c1cc(OC(F)F)c2nc(N3C4CCC3CC(NCc3c(-c5c(Cl)cccc5Cl)noc3C3CC3)C4)sc2c1 (stereo not shown) [Example 328] | 146% | > 9.00
29 | COc1nc2cc(C(=O)NS(=O)(=O)C3(C)CC3)ccc2nc1N1C2CCC1CC(NCc1c(-c3c(Cl)cccc3Cl)noc1C1CC1)C2 (stereo not shown) [Example 342] | 76% | 7.00 to 9.00
30 | O=C(NS(=O)(=O)N1CCCC1)c1cc(F)c2nc(N3C4CCC3CC(NCc3c(-c5c(Cl)cccc5Cl)noc3C3CC3)C4)sc2c1 (stereo not shown) [Example 400-1] | 210% | 7.00 to 9.00
31 | CC(C)Oc1cc(C(=O)NS(=O)(=O)C2CC2)cc2sc(N3CCC(NCc4c(-c5c(Cl)cccc5Cl)noc4C4CC4)CC3)nc12 [Example 400-3] | 104% | 7.00 to 9.00
32 | CC(C)Oc1cc(C(=O)NS(=O)(=O)C2(C)CC2)cc2sc(N3CCC(NCc4c(-c5c(Cl)cccc5Cl)noc4C4CC4)CC3)nc12 [Example 400-4] | 97.5% | 7.00 to 9.00
33 | CC(C)Oc1cc(C(=O)NS(=O)(=O)N2CCCC2)cc2sc(N3CCC(NCc4c(-c5c(Cl)cccc5Cl)noc4C4CC4)CC3)nc12 [Example 400-5] | 110% | 7.00 to 9.00
34 | CC(C)Oc1cc(C(=O)NS(=O)(=O)N2CCCCC2)cc2sc(N3CCC(NCc4c(-c5c(Cl)cccc5Cl)noc4C4CC4)CC3)nc12 [Example 400-6] | 73.5% | 7.00 to 9.00
35 | O=C(NS(=O)(=O)N1CCCC1)c1cc(F)c2nc(N3CCC(NCc4c(-c5c(Cl)cccc5Cl)noc4C4CC4)CC3)sc2c1 [Example 400-7] | 91% | 7.00 to 9.00
